{"source": "paper PMC3780409", "about": "(Methods in molecular biology (Clifton, N.J.), 2011)", "key": {"CXCR1/2": {"system": "CXCR1/2", "conditions": "sepsis, SIRS, DIC, septic mice; cited from earlier work"}, "[1]": {"conditions": "mouse, in vivo"}, "[2]": {"system": "breast MCF-7 cells and melanoma SK-Mel2 cells", "conditions": "inhibition of growth, cell line not specified (MCF-7 and SK-Mel2 tested); cited from earlier work"}, "PAR1 [3]": {"system": "PAR1", "conditions": "rat aortic rings, vascular tissue preparations; cited from earlier work"}, "PAR4 [4]": {"system": "PAR4", "conditions": "guinea pigs, cited from earlier work"}, "PAR4 [5]": {"system": "PAR4", "conditions": "thrombin-preactivated human platelets; cited from earlier work"}, "PAR1 [6]": {"system": "PAR1", "conditions": "selectivity for PAR4; cited from earlier work"}, "PAR4 [7]": {"system": "PAR4", "conditions": "cited from earlier work"}, "PAR1 [8]": {"system": "PAR1", "conditions": "cited from earlier work; for Outcome: sepsis, SIRS, DIC, mice"}, "PAR4 [9]": {"system": "PAR4", "conditions": "reverse-sequence control; cited from earlier work"}}, "note": "“Also recorded” adds a separate entry of the source. Read-outs that look alike come from different tables or passages of the source.", "data": [{"substance": "N-LCA-YSRVGRSVTD-NH2 [x1/2LCA-i1]", "values": [{"measurement": "Outcome", "setting": "CXCR1/2", "result": "CXCR1/2 pepducins reduced organ damage, inhibited neutrophil migration, improved survival, and inhibited DIC"}]}, {"substance": "pal-CGRRYGHALR [[^14C]-P4pal-10C]", "values": [{"measurement": "increase of radioactivity in urine", "setting": "[1]", "result": "fivefold"}, {"measurement": "radioactivity in urine", "setting": "[1]", "result": "detected"}, {"measurement": "tissues in which radioactivity appeared", "setting": "[1]; iv, 1.4 mg/kg", "result": "liver, kidney, lungs, and spleen, and lesser amounts to other tissues"}, {"measurement": "tissues in which radioactivity appeared", "setting": "[1]; iv, 14 mg/kg", "result": "kidney, lungs, liver, and spleen with lesser radioactivity appearing in the heart, blood, muscle, and fat, but not the brain"}, {"measurement": "tissues in which radioactivity appeared", "setting": "[1]; sc, 1 mg/kg", "result": "liver, kidney, lungs, and blood"}, {"measurement": "tissues in which radioactivity appeared", "setting": "[1]; sc, 10 mg/kg", "result": "fairly even distribution of radioactivity to the kidney, liver, spleen, blood, heart, and lungs, with lesser amounts to muscle and fat, but not to brain"}]}, {"substance": "Pal-LTYAWHTSFK [SMO-i2-12]", "values": [{"measurement": "IC50", "setting": "[2]", "result": 60, "unit": "nM"}]}, {"substance": "N-pal-RCLSSSAVANRSKKSRALF-NH2 [Pepducin P1pal-19]", "values": [{"measurement": "Outcome (agonist activity: Ca2+ signal, relaxation, prostaglandin E2 release)", "setting": "PAR1 [3]", "result": "promote Ca^2+ signals, prostaglandin E2 release, and persistent relaxation of rat aortic rings in a concentration-dependent manner; also recorded: Promotes Ca^2+ signal, relaxation of rat aortic rings, and prostaglandin E2 release"}]}, {"substance": "N-pal-ATGAPRLPST-NH2 [Pepducin P4pal-i1]", "values": [{"measurement": "decrease of arterial occlusion", "setting": "PAR4 [4]; carotid injury model, single agent", "result": "approximately 50%"}, {"measurement": "Outcome (arterial occlusion)", "setting": "PAR4 [4]; when combined with bivalirudin or P1pal-7", "result": "Inhibition of arterial occlusion in guinea pigs, when combined with bivalirudin or P1pal-7"}, {"measurement": "arterial thrombosis, combined with bivalirudin", "setting": "PAR4 [4]", "result": "suppression of arterial thrombosis in guinea pigs to a much higher degree than bivalirudin alone"}, {"measurement": "Outcome (epinephrine-induced Ca2+ flux and aggregation)", "setting": "PAR4 [5]", "result": "inhibited; also recorded: Inhibition of epinephrine-induced Ca^2+ flux"}, {"measurement": "effect on PAR1-induced platelet aggregation", "setting": "PAR1 [6]", "result": "without affecting"}, {"measurement": "human platelet aggregation, combined with bivalirudin", "setting": "PAR4 [7]", "result": "significant inhibition of human platelet aggregation"}]}, {"substance": "N-pal-AVANRSKKSRALF-NH2 [Pepducin P1pal-13]", "values": [{"measurement": "Outcome", "setting": "PAR1 [8]", "result": "Temporally modulated survival, vascular leakage, and DIC"}, {"measurement": "survival and DIC, treatment at late time points (agonist)", "setting": "PAR1 [8]; septic mice, by inhibiting leakage of endothelial cell tight junctions", "result": "improved survival and prevented DIC"}]}, {"substance": "N-pal-RLAHGYRRGS-NH2 [Rev-P4pal-10, reference compound]", "values": [{"measurement": "Target (activity class)", "setting": "PAR4 [9]", "result": "Inactive"}]}, {"substance": "N-pal-RTLFKAHMGQKHRAMR-NH2 [x1/2pal-i3]", "values": [{"measurement": "Outcome", "setting": "CXCR1/2", "result": "CXCR1/2 pepducins reduced organ damage, inhibited neutrophil migration, improved survival, and inhibited DIC"}]}, {"substance": "N-pal-RSLSSSAVANRS-NH2 [Pepducin P1pal-12S]", "values": [{"measurement": "Outcome", "setting": "PAR1 [8]", "result": "Temporally modulated survival, vascular leakage, and DIC"}, {"measurement": "survival and DIC, treatment at early time points", "setting": "PAR1 [8]; septic mice", "result": "improved survival and prevented DIC"}, {"measurement": "survival and DIC, treatment at late time points (antagonist)", "setting": "PAR1 [8]; septic mice", "result": "but not late time points"}]}]}
